According to patent publication US9056176B2, “1-phenyl-2-pyridinyl alkyl alcohol compounds as phosphodiesterase inhibitors” (CHIESI FARMACEUTICI S.P.A., priority 2009, dated 2015):

Experiments:
[1] = tested on: LPS-induced TNF-α release in human PBMCs (PDE4 inhibitory activity); test: LPS-induced TNF-α release in peripheral blood mononuclear cells (PBMCs) assay; assay type: cell-based; conditions: PBMC, LPS 3 ng/ml, 18 hours, TNF-α by ELISA, mean ± 95% confidence limits, read-out: molar concentration producing 50% inhibition of LPS-induced TNF-α release (IC50)
Protocol: The assay, which is based on the known inhibitory activity exerted by PDE4 inhibitors on the lipopolyshaccarides (LPS)-induced tumour necrosis factor-alpha (TNF-α release in peripheral blood mononuclear cells (PBMCs), is performed according to a method previously described (Hatzelmann A et al., J. Pharmacol. Exp. Ther., 2001; 297:267-279; and Draheim R et al., J. Pharmacol. Exp. Ther., 2004; 308:555-563, both of which are incorporated herein by reference in their entireties.
Cryopreserved human PBMCs, (100 μl/well) are incubated in 96-well plates (10^5 cells/well), for 30 minutes, in the presence or absence (50 microl) of the test compounds whose concentrations range from 10^−12 M to 10^−6 M. Subsequently, LPS (3 ng/ml) is added.
After 18 hours incubation at 37° C. in a humidified incubator under an atmosphere of 95% air and 5% CO2, culture medium is collected and TNF-α is measured by ELISA.
The effects of the tested compounds are calculated as percentage of inhibition of TNF-α release, assuming LPS-induced TNF-α production in the absence of inhibitor compound as 100% and basal TNF-α production of PBMCs in the absence of LPS as 0%.

[2] = tested on: OA-induced contraction in guinea-pig trachea; test: OA-induced contraction of tracheal preparations from OA-sensitised guinea pigs (organ bath); conditions: 30-minute pre-treatment
Protocol: Zig-zag tracheal segments are obtained from male Ovoalbumin (OA)-sensitised guinea pigs and two preparations are obtained from a trachea. Each preparation is placed in 20-ml organ bath filled with oxygenated (O2 95% and CO2 5%) normal Krebs-Henseleit solution and maintained at 37° C. Tracheal preparations are connected to isometric force transducers under a resting tone of 1 g. After an equilibration period of 60 minutes, tracheal preparations are pretreated for 30 minutes with C1 (10^-7 M), Carmoterol (3*10^-10 M), the association C1 and Carmoterol or vehicle, respectively, followed by cumulative administration of OA (10^−10-10^−5 g/ml). At the end of the OA administration a maximal concentration of carbachol (10^−5 M) is added to obtain the maximal contraction of each preparation. The effects are expressed as percent values of the carbachol-induced maximal response (100%).

Row | SMILES | IC50 [1] | inhibition at 0.1 µM ([2]; Cavia porcellus, C1 10^−7 M) | inhibition of the OA-induced contraction ([2]; Carmoterol 3*10^-10 M)
1 | CS(=O)(=O)Nc1ccc(C(=O)OC(Cc2c(Cl)cncc2Cl)c2ccc(OC(F)F)c(OCC3CC3)c2)cc1OCC1CC1 (single isomer, unassigned; (-)) [Compound C1, (−)-3-Cyclopropylmethoxy-4-methanesulfonylamino-benzoic acid 1-(3-cyclopropylmethoxy-4-difluoromethoxy-phenyl)-2-(3,5-dichloro-pyridin-4-yl)-ethyl ester] | 0.06 to 4.4 nM | 23% | –
2 | COc1ccc(C[C@@H](C)NC[C@H](O)c2ccc(O)c3[nH]c(=O)ccc23)cc1 [Carmoterol, carmoterol, reference compound] | – | – | 18%
